Legend:
[1] = test system: CFTR G542X; assay: Functional CFTR channel activity, TECC-24 electrophysiology, 16HBE cells (CFTR G542X readthrough); format: cell-based, human
Procedure: (§1) 16HBE human bronchial epithelial cells were seeded onto Transwell 24-well filter inserts coated with human collagen type IV. Cells were seeded 7 days prior to functional testing at a density of 1.7×10^5 cells onto the “apical” chamber filter of the Transwell insert. Cells were grown as submerged cultures (200 μL apical/700 μL basolateral) in Minimal Essential Medium (MEM) containing 10% qualified Fetal Bovine Serum and 1% Penicillin/Streptomycin and incubated at 37° C. and 5% CO2. Growth media on cells was replenished with fresh media every 1-3 days prior to test agent treatment day. After 7 days in culture, the CFTR-mediated chloride (Cl^−) equivalent current (Ieq) of the 16HBE cells was recorded, which may typically form electrically tight epithelia with a transepithelial resistance (Rt) of 2000-6000 Ω·cm2 as described below. Forty-eight hours prior to electrophysiological measurements, fresh growth media containing the test agents was applied to both chambers separating filter bound epithelial monolayer.
(§2) On the day of electrophysiology studies, electrodes of a “Multi-(24-channel) transepithelial current clamp amplifier” (MTECC-24 (TECC-24 for short), EP Devices, Belgium) were soaked in an assay buffer (see below for composition) for at least 2 hours using 24-well Transwell plates without inserts. Cell culture media was replaced in the Transwell assay plates with assay buffer (see below) and the plates were mounted onto a custom-built automated robotic assay platform (Yamaha RCX240S controller) with heated plate holders set at 37° C. for 60 min. After equilibration, transepithelial potential difference (PD) and resistance (Rt) was monitoredat ˜5 min intervals using the TECC-24 transepithelial current clamp. Electrode potential differences were monitored for each pair of Ag/AgCl voltage electrodes by taking voltage measurements from a control (“blank”) plate with matching buffer solutions and 16HBE cells that were not treated with any test agent. PD values for each electrode pair were subtracted from the blank plate from that of the test plates at each time point. Ieq was calculated from the corrected PD values and Rt using Ohm's law. Ieq values were slope corrected to account for measurement drift over time using the equation: Slope corrected value=calculated Ieq−((time x slope)+y-intercept) with the slope and y-intercept calculated from the data points captured during the initial baseline period and following addition of the CFTR inhibitor.
(§3) The equivalent current (Ieq) traces associated with CFTR channel activation were plotted as baseline subtracted mean±standard deviation from 3-4 separate wells on the 24-well Transwell (n=3-4). There are 4 recording periods, with the first set of data points recorded baseline Ieq currents prior to sequential activation of available CFTR channels with forskolin (10 μM) and then in combination with potentiator VX-770/ivacaftor (1 μM). Recorded the last set of data points in the presence of CFTR inhibitor CFTRinh-172 (20 μM) to confirm that currents are mediated via activation of CFTR channels. The test agents and control/reference compounds were pre-diluted to 10-fold concentrations in assay buffer and added manually using a multi-channel pipette to both the basolateral and apical side of the membrane (test plates only). Employed CFTR-mediated changes in Ieq, (i.e. forskolin/VX-770 activated currents) to measure functional CFTR surface expression or treatment-related functional rescue of mutant CFTR.
(§4) The magnitude of test agent mediated enhancement of functional CFTR currents was calculated by comparing forskolin/VX-770 stimulated Ieq relative to baseline/CFTRinh-172 Ieq following 48 hour pretreatment with test agent(s) and normalizing to the forskolin/VX-770 stimulated Ieq determined following 48 hour pretreatment with a maximally effective concentration a reference control aminoglycoside agent (typically 110 μM G418). […]

[2] = test system: CFTR R1162X; assay: Functional CFTR channel activity, TECC-24 electrophysiology, 16HBE cells (CFTR R1162X readthrough); format: cell-based, human
Procedure: as §1, §2, §3, §4

[3] = RTM conc. —, eRF3 modulator (CC-90009) 1 uM, ELX-02 100 uM
[4] = RTM 0.5 uM, eRF3 modulator (CC-90009) 1 uM, Paramomycin 2000 uM
[5] = RTM 0.5 uM, eRF3 modulator (CC-90009) 1 uM, ELX-02 100 uM
[6] = RTM 0.5 uM, no eRF3 modulator, Paramomycin 2000 uM
[7] = RTM 1 uM, eRF3 modulator (CC-90009) 1 uM, ELX-02 100 uM
[8] = RTM 1 uM, no eRF3 modulator, ELX-02 100 uM
[9] = RTM 0.5 uM, no eRF3 modulator, ELX-02 100 uM
[10] = RTM 1 uM, eRF3 modulator (CC-90009) 1 uM, G418 10 uM
[11] = RTM 0.5 uM, eRF3 modulator (CC-90009) 1 uM, G418 10 uM

Structure (SMILES): O=C1N[C@H](CO)CN1c1ccc(OCc2c(Cl)cccc2Cl)cn1 [drawing 832]
- Currents (% of 110 μM G418 (Max effect)) [1, 3]: 83 % of 110 μM G418 (Max effect)

Structure (SMILES): OCc1cn(-c2ncc(OCc3c(Cl)cccc3Cl)cn2)cn1 [drawing 838]
- Currents (% of 110 μM G418 (Max effect)) [1, 4]: 140 % of 110 μM G418 (Max effect)

Structure (SMILES): OCc1cn(-c2ncc(OCc3c(Cl)cccc3Cl)cn2)cn1 [drawing 824]
- Currents (% of 110 μM G418 (Max effect)) [1, 5]: 421 % of 110 μM G418 (Max effect)

Structure (SMILES): OCc1ncn(-c2ncc(OCc3c(Cl)cccc3C(F)(F)F)cn2)n1 [drawing 835]
- Currents (% of 110 μM G418 (Max effect)) [1, 3]: 60 % of 110 μM G418 (Max effect)

Structure (SMILES): O=C1O[C@H](CO)CN1c1ccc(OCc2c(Cl)cccc2Cl)cc1 [drawing 842]
- Currents (% of 110 μM G418 (Max effect)) ([1]; RTM 5 uM, eRF3 modulator (CC-90009) 10 uM, G418 10 uM): 323 % of 110 μM G418 (Max effect)

Structure (SMILES): OCc1cn(-c2ncc(OCc3c(Cl)cccc3Cl)cn2)cn1 [drawing 837]
- Currents (% of 110 μM G418 (Max effect)) [1, 6]: 5 % of 110 μM G418 (Max effect)

Structure (SMILES): Cc1cccc(C(F)(F)F)c1COc1ccc(-c2nc(CO)n[nH]2)cc1 [drawing 830]
- Currents (% of 110 μM G418 (Max effect)) [1, 7]: 263 % of 110 μM G418 (Max effect)

Structure (SMILES): O=C1N[C@H](CO)CN1c1ccc(OCc2c(Cl)cccc2Cl)cn1 [drawing 831]
- Currents (% of 110 μM G418 (Max effect)) [1, 8]: 79 % of 110 μM G418 (Max effect)

Structure (SMILES): O=C1N[C@H](CO)CN1c1ccc(OCc2c(Cl)cccc2Cl)cn1 [drawing 833]
- Currents (% of 110 μM G418 (Max effect)) [1, 7]: 293 % of 110 μM G418 (Max effect)

Structure (SMILES): OCc1cn(-c2ncc(OCc3c(Cl)cccc3Cl)cn2)cn1 [drawing 823]
- Currents (% of 110 μM G418 (Max effect)) [1, 9]: 50 % of 110 μM G418 (Max effect)

Structure (SMILES): Cc1cccc(C(F)(F)F)c1COc1ccc(N2CC(CO)OC2=O)cc1 (stereo not shown) [drawing 840]
- Currents (% of 110 μM G418 (Max effect)) [1, 10]: 290 % of 110 μM G418 (Max effect)

Structure (SMILES): OCc1cn(-c2ncc(OCc3c(Cl)cccc3Cl)cn2)cn1 [drawing 822]
- Currents (% of 110 μM G418 (Max effect)) [1, 11]: 429 % of 110 μM G418 (Max effect)

Structure (SMILES): OCc1cn(-c2ncc(OCc3c(Cl)cccc3Cl)cn2)cn1 [drawing 814]
- Currents (% of 110 μM G418 (Max effect)) [2, 4]: 183 % of 110 μM G418 (Max effect)

Structure (SMILES): OCc1ccn(-c2ncc(OCc3c(Cl)cccc3Cl)cn2)n1 [drawing 827]
- Currents (% of 110 μM G418 (Max effect)) [1, 7]: 278 % of 110 μM G418 (Max effect)

Structure (SMILES): OCc1cn(-c2ncc(OCc3c(Cl)cccc3Cl)cn2)cn1 [drawing 813]
- Currents (% of 110 μM G418 (Max effect)) [2, 6]: 7 % of 110 μM G418 (Max effect)

Structure (SMILES): OCc1cn(-c2ncc(OCc3c(Cl)cccc3Cl)cn2)cn1 [drawing 799]
- Currents (% of 110 μM G418 (Max effect)) [2, 9]: 51 % of 110 μM G418 (Max effect)

Structure (SMILES): Cc1cccc(C(F)(F)F)c1COc1ccc(N2CC(CO)OC2=O)cc1 (stereo not shown) [drawing 816]
- Currents (% of 110 μM G418 (Max effect)) [2, 10]: 423 % of 110 μM G418 (Max effect)

Structure (SMILES): O=C1N[C@H](CO)CN1c1ccc(OCc2c(Cl)cccc2Cl)cn1 [drawing 808]
- Currents (% of 110 μM G418 (Max effect)) [2, 3]: 63 % of 110 μM G418 (Max effect)

Structure (SMILES): Cc1cccc(C(F)(F)F)c1COc1ccc(N2CC(CO)OC2=O)cc1 (stereo not shown) [drawing 815]
- Currents (% of 110 μM G418 (Max effect)) ([2]; RTM 1 uM, no eRF3 modulator, G418 10 uM): 76 % of 110 μM G418 (Max effect)

Structure (SMILES): OCc1cn(-c2ncc(OCc3c(Cl)cccc3Cl)cn2)cn1 [drawing 800]
- Currents (% of 110 μM G418 (Max effect)) [2, 5]: 473 % of 110 μM G418 (Max effect)

Structure (SMILES): Cc1cccc(C(F)(F)F)c1COc1ccc(-c2nc(CO)n[nH]2)cc1 [drawing 804]
- Currents (% of 110 μM G418 (Max effect)) [2, 8]: 106 % of 110 μM G418 (Max effect)

Structure (SMILES): OCc1cn(-c2ncc(OCc3c(Cl)cccc3Cl)cn2)cn1 [drawing 798]
- Currents (% of 110 μM G418 (Max effect)) [2, 11]: 472 % of 110 μM G418 (Max effect)

Structure (SMILES): O=C1O[C@H](CO)CN1c1ccc(OCc2c(Cl)cccc2Cl)cc1 [drawing 817]
- Currents (% of 110 μM G418 (Max effect)) ([2]; RTM 5 uM, no eRF3 modulator, G418 10 uM): 54 % of 110 μM G418 (Max effect)

Structure (SMILES): O=C1N[C@H](CO)CN1c1ccc(OCc2c(Cl)cccc2Cl)cn1 [drawing 809]
- Currents (% of 110 μM G418 (Max effect)) [2, 7]: 266 % of 110 μM G418 (Max effect)

Structure (SMILES): OCc1ccn(-c2ncc(OCc3c(Cl)cccc3Cl)cn2)n1 [drawing 802]
- Currents (% of 110 μM G418 (Max effect)) [2, 3]: 63 % of 110 μM G418 (Max effect)
